{"source": "paper PMC3086468", "about": "(Journal of medicinal chemistry, 2011)", "key": {"LYP": {"biological_target": "T1, LYP (Homo sapiens, UniProt Q9Y2R2)", "T1 sequence (Q9Y2R2 2-309)": "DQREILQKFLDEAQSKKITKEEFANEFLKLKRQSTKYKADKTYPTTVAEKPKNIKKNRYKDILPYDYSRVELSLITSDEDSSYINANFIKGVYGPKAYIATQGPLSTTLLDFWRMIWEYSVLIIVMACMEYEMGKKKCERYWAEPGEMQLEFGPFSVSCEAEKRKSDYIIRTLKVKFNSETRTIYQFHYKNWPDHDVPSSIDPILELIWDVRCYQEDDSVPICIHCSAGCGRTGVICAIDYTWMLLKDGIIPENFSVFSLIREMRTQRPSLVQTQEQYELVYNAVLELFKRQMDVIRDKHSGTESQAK", "format": "biochemical"}, "JTAg cells": {"system": "JTAg cells", "assay": "TCR signaling in JTAg cells, Western blot", "format": "cell-based, human", "conditions": "for TCR-induced phosphorylation of Lck at Y394: 50 μM compound, C305 stimulation 2 min, anti-pSrc(Y416) blot"}, "Pep": {"system": "Pep", "assay": "Lck Y394 phosphorylation in Ptpn22+/+ and Ptpn22−/− mouse T cells", "format": "cell-based", "conditions": "50 μM, stimulated with anti-CD3 and anti-CD4"}, "primary human T cells": {"system": "primary human T cells", "assay": "TCR-induced phosphorylation in primary human T cells", "format": "cell-based", "conditions": "50 μM, anti-CD3/anti-CD28 1 min"}}, "note": "Read-outs that look alike come from different tables or passages of the source.", "data": [{"smiles": "Cc1ccc2[nH]c(=O)c(C(c3nnnn3C3CCCC3)N(Cc3ccccc3)Cc3ccc(Cl)cc3)cc2c1", "note": "(centres unmarked) [Compound 4g]", "values": [{"measurement": "dual inhibition plot vs compound 13", "setting": "LYP; 13.72 μM pY peptide, 25 nM LYP", "result": "converging lines"}, {"measurement": "α", "setting": "LYP; mixed model inhibition fit, pY peptide, pH 6.0, 37 °C", "result": "2.96 ± 2.48"}, {"measurement": "relationship between IC50 and substrate concentration", "setting": "LYP; pY peptide, 25 nM LYP", "result": "independent from substrate concentration"}]}, {"smiles": "Cc1ccc2[nH]c(=O)c(C(c3nnnn3C3CCCC3)N3CCN(C(c4ccccc4)c4ccccc4)CC3)cc2c1", "note": "(centres unmarked) [Compound 4f]", "values": [{"measurement": "relationship between IC50 and substrate concentration", "setting": "LYP", "result": "independent from substrate concentration"}, {"measurement": "α", "setting": "LYP; pH 6", "result": "1.93 ± 1.27"}]}, {"smiles": "Cc1ccc2[nH]c(=O)c(C(c3nnnn3C3CCCC3)N3CCCC4(CCCCC4)C3)cc2c1", "note": "(centres unmarked) [Compound 4]", "values": [{"measurement": "ERK1/2 phosphorylation", "setting": "JTAg cells; JTAg cells, 50 μM, C305 2 min", "result": "increased ERK1/2 phosphorylation"}, {"measurement": "TCR-stimulated phosphorylation of ZAP70", "setting": "JTAg cells; JTAg cells, 50 μM, C305 2 min", "result": "increased TCR-stimulated phosphorylation of ZAP70"}, {"measurement": "Lck phosphorylation at Y394, wild type (Ptpn22+/+) T cells", "setting": "Pep", "result": "increased Lck phosphorylation at Y394"}, {"measurement": "Lck phosphorylation, Ptpn22−/− T cells", "setting": "Pep", "result": "no effect on phosphorylation of Lck"}, {"measurement": "TCR-induced phosphorylation of Lck, ZAP70 and LAT", "setting": "primary human T cells", "result": "equally able to boost TCR-induced phosphorylation of Lck, ZAP70, and linker for activation of T cells (LAT)"}]}, {"smiles": "CCc1cccc(C)c1NC(=O)CSc1nc2c(C)ccc(C)c2cc1C#N", "note": "[Compound 2]", "values": [{"measurement": "phosphorylation of Lck at Y505", "setting": "JTAg cells; JTAg cells treated with compound (data not shown)", "result": "unable to detect increased phosphorylation of Lck at Y505"}, {"measurement": "TCR-induced phosphorylation of Lck at Y394", "setting": "JTAg cells; JTAg cells", "result": "lack of activity"}]}, {"smiles": "CCOc1ccc2nc(NC(=O)CSc3nc4sc(C)c(C)c4c(=O)[nH]3)sc2c1", "note": "[Compound 1]", "values": [{"measurement": "TCR-induced phosphorylation of Lck at Y394", "setting": "JTAg cells; JTAg cells", "result": "lack of activity"}]}, {"smiles": "O=C(CSc1nc(C2CC2)nc2sc3c(c12)CCCC3)NCc1ccc2c(c1)OCO2", "note": "[Compound 6]", "values": [{"measurement": "TCR-induced phosphorylation of Lck at Y394", "setting": "JTAg cells; JTAg cells", "result": "lack of activity"}]}]}
